The values below come from patent US20250213555A1, “SUBSTITUTED TETRAHYDROFURAN ANALOGS AS MODULATORS OF SODIUM CHANNELS” (VERTEX PHARMACEUTICALS INCORPORATED, priority 2021, published 2025).

A value given as a limit tells only on which side of the number the result lay.

The target in this test is human Nav 1.8 (Homo sapiens, UniProt Q9Y5Y9). The test is described as follows: E-VIPR assay detecting and measuring Nav inhibition properties. It counts as cell-based. The conditions noted are these: HEK cells expressing a truncated form of human Nav 1.8; compound numbers without "*" (not marked as run in the presence of human serum); read-out: measured IC50 value in the E-VIPR Assay. In a few lines: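 Nav inhibition was read by E-VIPR: cells were electrically stimulated while coumarin/oxonol FRET emissions were recorded. Cells were HEK expressing a truncated human Nav 1.8 and co-transduced with KIR2.1, and were assayed in 25% final human serum.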
human Nav 1.8, sequence (Q9Y5Y9 126-399 limits assumed): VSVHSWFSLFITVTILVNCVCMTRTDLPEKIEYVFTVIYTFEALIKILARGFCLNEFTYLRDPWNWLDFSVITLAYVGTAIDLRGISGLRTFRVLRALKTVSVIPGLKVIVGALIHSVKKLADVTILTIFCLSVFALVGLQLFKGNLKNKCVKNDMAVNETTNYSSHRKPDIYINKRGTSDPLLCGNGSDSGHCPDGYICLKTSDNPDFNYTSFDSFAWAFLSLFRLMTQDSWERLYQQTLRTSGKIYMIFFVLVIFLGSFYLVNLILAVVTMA
human Nav 1.8, sequence (Q9Y5Y9 660-890 limits assumed): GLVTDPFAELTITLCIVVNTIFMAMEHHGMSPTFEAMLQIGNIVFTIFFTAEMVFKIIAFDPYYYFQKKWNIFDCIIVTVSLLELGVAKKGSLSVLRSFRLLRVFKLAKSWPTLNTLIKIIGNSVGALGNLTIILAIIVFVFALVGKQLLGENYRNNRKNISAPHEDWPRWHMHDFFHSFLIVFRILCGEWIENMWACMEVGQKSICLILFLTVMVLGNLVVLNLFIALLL
human Nav 1.8, sequence (Q9Y5Y9 1148-1722 limits assumed): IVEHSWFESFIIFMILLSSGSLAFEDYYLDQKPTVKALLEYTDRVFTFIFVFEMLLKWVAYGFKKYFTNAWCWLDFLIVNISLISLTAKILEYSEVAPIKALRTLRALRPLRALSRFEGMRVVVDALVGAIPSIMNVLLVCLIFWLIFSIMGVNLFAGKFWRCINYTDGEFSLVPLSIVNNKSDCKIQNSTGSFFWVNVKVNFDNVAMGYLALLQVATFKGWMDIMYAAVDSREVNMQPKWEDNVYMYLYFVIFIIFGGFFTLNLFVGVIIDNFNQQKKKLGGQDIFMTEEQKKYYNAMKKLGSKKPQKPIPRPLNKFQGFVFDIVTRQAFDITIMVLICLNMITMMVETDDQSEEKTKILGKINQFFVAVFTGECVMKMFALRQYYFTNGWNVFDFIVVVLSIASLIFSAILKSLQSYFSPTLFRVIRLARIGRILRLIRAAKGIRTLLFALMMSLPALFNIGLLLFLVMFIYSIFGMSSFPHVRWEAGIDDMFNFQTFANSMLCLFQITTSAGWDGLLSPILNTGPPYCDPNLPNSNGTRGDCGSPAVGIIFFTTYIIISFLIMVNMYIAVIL
Take `COc1c([C@H]2[C@H](C(=O)Nc3ccnc(C(=O)N4CC5(CCCN5)C4)c3)O[C@@](C)(C(F)(F)F)[C@H]2C)ccc(F)c1F` [Compound 230, (2R,3S,4S,5R)-N-(2-(2,5-diazaspiro[3.4]octane-2-carbonyl)pyridin-4-yl)-3-(3,4-difluoro-2-methoxyphenyl)-4,5-dimethyl-5-(trifluoromethyl)tetrahydrofuran-2-carboxamide]: the IC50 (commonly the concentration needed to halve the response being measured) was less than 10 nM.
Consider `CNCCNC(=O)c1cc(NC(=O)[C@@H]2O[C@@](C)(C(F)(F)F)[C@@H](C)[C@H]2c2ccc(F)c(F)c2OC)ccn1` [Compound 231, 4-((2R,3S,4S,5R)-3-(3,4-difluoro-2-methoxyphenyl)-4,5-dimethyl-5-(trifluoromethyl)tetrahydrofuran-2-carboxamido)-N-(2-(methylamino)ethyl)picolinamide], for which the IC50 is less than 10 nM.
For `COc1c([C@H]2[C@H](C(=O)Nc3ccnc(C(=O)N4CCNC[C@@H]4C)c3)O[C@@](C)(C(F)(F)F)[C@H]2C)ccc(F)c1F` [Compound 232, (2R,3S,4S,5R)-3-(3,4-difluoro-2-methoxyphenyl)-4,5-dimethyl-N-(2-((S)-2-methylpiperazine-1-carbonyl)pyridin-4-yl)-5-(trifluoromethyl)tetrahydrofuran-2-carboxamide], the IC50 is less than 10 nM.
In the case of `COc1c([C@H]2[C@H](C(=O)Nc3ccnc(C(=O)NC[C@]4(C)CCCN4)c3)O[C@@](C)(C(F)(F)F)[C@H]2C)ccc(F)c1F` [Compound 233, 4-((2R,3S,4S,5R)-3-(3,4-difluoro-2-methoxyphenyl)-4,5-dimethyl-5-(trifluoromethyl)tetrahydrofuran-2-carboxamido)-N-(((S)-2-methylpyrrolidin-2-yl)methyl)picolinamide], the IC50 was 10 to 100 nM.
As for `CNCCN(C)C(=O)c1cc(NC(=O)[C@@H]2O[C@@](C)(C(F)(F)F)[C@@H](C)[C@H]2c2ccc(F)c(F)c2OC)ccn1` [Compound 234, 4-((2R,3S,4S,5R)-3-(3,4-difluoro-2-methoxyphenyl)-4,5-dimethyl-5-(trifluoromethyl)tetrahydrofuran-2-carboxamido)-N-methyl-N-(2-(methylamino)ethyl)picolinamide], the figure is less than 10 nM.
For the compound `COc1c([C@H]2[C@H](C(=O)Nc3ccnc(C(=O)N4CCNC[C@H]4C)c3)O[C@@](C)(C(F)(F)F)[C@H]2C)ccc(F)c1F` [Compound 235, (2R,3S,4S,5R)-3-(3,4-difluoro-2-methoxyphenyl)-4,5-dimethyl-N-(2-((R)-2-methylpiperazine-1-carbonyl)pyridin-4-yl)-5-(trifluoromethyl)tetrahydrofuran-2-carboxamide], the IC50 was less than 10 nM.
`COc1c([C@H]2[C@H](C(=O)Nc3ccnc(C(=O)NC4CNC4)c3)O[C@@](C)(C(F)(F)F)[C@H]2C)ccc(F)c1F` [Compound 236, N-(azetidin-3-yl)-4-((2R,3S,4S,5R)-3-(3,4-difluoro-2-methoxyphenyl)-4,5-dimethyl-5-(trifluoromethyl)tetrahydrofuran-2-carboxamido)picolinamide]: the IC50 lay in the range of 10 to 100 nM.
`COc1c([C@H]2[C@H](C(=O)Nc3ccnc(C(=O)N4C5CNCC4C5)c3)O[C@@](C)(C(F)(F)F)[C@H]2C)ccc(F)c1F` [Compound 237, (2R,3S,4S,5R)-N-(2-(3,6-diazabicyclo[3.1.1]heptane-6-carbonyl)pyridin-4-yl)-3-(3,4-difluoro-2-methoxyphenyl)-4,5-dimethyl-5-(trifluoromethyl)tetrahydrofuran-2-carboxamide]: the IC50 was in the range of 10 to 100 nM.
As for `COc1c([C@H]2[C@H](C(=O)Nc3ccnc(C(=O)N[C@H]4CCNC4)c3)O[C@@](C)(C(F)(F)F)[C@H]2C)ccc(F)c1F` [Compound 238, 4-((2R,3S,4S,5R)-3-(3,4-difluoro-2-methoxyphenyl)-4,5-dimethyl-5-(trifluoromethyl)tetrahydrofuran-2-carboxamido)-N-((S)-pyrrolidin-3-yl)picolinamide], the figure is less than 10 nM.
As for `COc1c([C@H]2[C@H](C(=O)Nc3ccnc(C(=O)N4CC5CC(C4)N5)c3)O[C@@](C)(C(F)(F)F)[C@H]2C)ccc(F)c1F` [Compound 239, (2R,3S,4S,5R)-N-(2-(3,6-diazabicyclo[3.1.1]heptane-3-carbonyl)pyridin-4-yl)-3-(3,4-difluoro-2-methoxyphenyl)-4,5-dimethyl-5-(trifluoromethyl)tetrahydrofuran-2-carboxamide], the figure is less than 10 nM; as for `COc1c([C@H]2[C@H](C(=O)Nc3ccnc(C(=O)N4C[C@@H]5C[C@H]4CN5)c3)O[C@@](C)(C(F)(F)F)[C@H]2C)ccc(F)c1F` [Compound 240, (2R,3S,4S,5R)-N-(2-((1S,4S)-2,5-diazabicyclo[2.2.1]heptane-2-carbonyl)pyridin-4-yl)-3-(3,4-difluoro-2-methoxyphenyl)-4,5-dimethyl-5-(trifluoromethyl)tetrahydrofuran-2-carboxamide], less than 10 nM; as for `COc1c([C@H]2[C@H](C(=O)Nc3ccnc(C(=O)N4CCNC(C)(C)C4)c3)O[C@@](C)(C(F)(F)F)[C@H]2C)ccc(F)c1F` [Compound 241, (2R,3S,4S,5R)-3-(3,4-difluoro-2-methoxyphenyl)-N-(2-(3,3-dimethylpiperazine-1-carbonyl)pyridin-4-yl)-4,5-dimethyl-5-(trifluoromethyl)tetrahydrofuran-2-carboxamide], less than 10 nM.
As for `COc1c([C@H]2[C@H](C(=O)Nc3ccnc(C(=O)N[C@H]4CNC[C@@H]4OC)c3)O[C@@](C)(C(F)(F)F)[C@H]2C)ccc(F)c1F` [Compound 242, 4-((2R,3S,4S,5R)-3-(3,4-difluoro-2-methoxyphenyl)-4,5-dimethyl-5-(trifluoromethyl)tetrahydrofuran-2-carboxamido)-N-((3S,4S)-4-methoxypyrrolidin-3-yl)picolinamide], the figure is 10 to 100 nM.
`COc1c([C@H]2[C@H](C(=O)Nc3ccnc(C(=O)N4CCO[C@H]5CNC[C@H]54)c3)O[C@@](C)(C(F)(F)F)[C@H]2C)ccc(F)c1F` [Compound 243, (2R,3S,4S,5R)-3-(3,4-difluoro-2-methoxyphenyl)-4,5-dimethyl-N-(2-((4aR,7aS)-octahydropyrrolo[3,4-b][1,4]oxazine-4-carbonyl)pyridin-4-yl)-5-(trifluoromethyl)tetrahydrofuran-2-carboxamide]: the IC50 was less than 10 nM.
In the case of `COc1c([C@H]2[C@H](C(=O)Nc3ccnc(C(=O)N4C[C@H]5CC[C@@H](C4)NC5)c3)O[C@@](C)(C(F)(F)F)[C@H]2C)ccc(F)c1F` [Compound 244, (2R,3S,4S,5R)-N-(2-((1S,5S)-3,6-diazabicyclo[3.2.2]nonane-3-carbonyl)pyridin-4-yl)-3-(3,4-difluoro-2-methoxyphenyl)-4,5-dimethyl-5-(trifluoromethyl)tetrahydrofuran-2-carboxamide], the IC50 is less than 10 nM.
Turning to `COc1c([C@H]2[C@H](C(=O)Nc3ccnc(C(=O)N4CC5COCC(C4)N5)c3)O[C@@](C)(C(F)(F)F)[C@H]2C)ccc(F)c1F` [Compound 245, (2R,3S,4S,5R)-N-(2-(3-oxa-7,9-diazabicyclo[3.3.1]nonane-7-carbonyl)pyridin-4-yl)-3-(3,4-difluoro-2-methoxyphenyl)-4,5-dimethyl-5-(trifluoromethyl)tetrahydrofuran-2-carboxamide], the IC50 was less than 10 nM.
In the case of `COc1c([C@H]2[C@H](C(=O)Nc3ccnc(C(=O)N[C@H]4CNCC[C@H]4OC)c3)O[C@@](C)(C(F)(F)F)[C@H]2C)ccc(F)c1F` [Compound 246, 4-((2R,3S,4S,5R)-3-(3,4-difluoro-2-methoxyphenyl)-4,5-dimethyl-5-(trifluoromethyl)tetrahydrofuran-2-carboxamido)-N-((3S,4R)-4-methoxypiperidin-3-yl)picolinamide], the IC50 fell in the range of 100 to 1000 nM.
As for `COc1c([C@H]2[C@H](C(=O)Nc3ccnc(C(=O)N(C)[C@H]4CNC[C@@H]4OC)c3)O[C@@](C)(C(F)(F)F)[C@H]2C)ccc(F)c1F` [Compound 247, 4-((2R,3S,4S,5R)-3-(3,4-difluoro-2-methoxyphenyl)-4,5-dimethyl-5-(trifluoromethyl)tetrahydrofuran-2-carboxamido)-N-((3S,4S)-4-methoxypyrrolidin-3-yl)-N-methylpicolinamide], the figure is less than 10 nM.
Regarding `COC[C@H]1CN(C(=O)c2cc(NC(=O)[C@@H]3O[C@@](C)(C(F)(F)F)[C@@H](C)[C@H]3c3ccc(F)c(F)c3OC)ccn2)CCN1` [Compound 248, (2R,3S,4S,5R)-3-(3,4-difluoro-2-methoxyphenyl)-N-(2-((R)-3-(methoxymethyl)piperazine-1-carbonyl)pyridin-4-yl)-4,5-dimethyl-5-(trifluoromethyl)tetrahydrofuran-2-carboxamide], the half-maximal inhibitory concentration (IC50) was less than 10 nM.
For the compound `COc1c([C@H]2[C@H](C(=O)Nc3ccnc(C(=O)N4CCN[C@H](C)C4)c3)O[C@@](C)(C(F)(F)F)[C@H]2C)ccc(F)c1F` [Compound 249, (2R,3S,4S,5R)-3-(3,4-difluoro-2-methoxyphenyl)-4,5-dimethyl-N-(2-((R)-3-methylpiperazine-1-carbonyl)pyridin-4-yl)-5-(trifluoromethyl)tetrahydrofuran-2-carboxamide], the IC50 was less than 10 nM.
`COc1c([C@H]2[C@H](C(=O)Nc3ccnc(C(=O)N4C[C@@H](C)NC[C@H]4C)c3)O[C@@](C)(C(F)(F)F)[C@H]2C)ccc(F)c1F` [Compound 250, (2R,3S,4S,5R)-3-(3,4-difluoro-2-methoxyphenyl)-N-(2-((2R,5R)-2,5-dimethylpiperazine-1-carbonyl)pyridin-4-yl)-4,5-dimethyl-5-(trifluoromethyl)tetrahydrofuran-2-carboxamide]: the IC50 was less than 10 nM.
Turning to `COc1c([C@H]2[C@H](C(=O)Nc3ccnc(C(=O)NC[C@H]4CCCCN4)c3)O[C@@](C)(C(F)(F)F)[C@H]2C)ccc(F)c1F` [Compound 251, 4-((2R,3S,4S,5R)-3-(3,4-difluoro-2-methoxyphenyl)-4,5-dimethyl-5-(trifluoromethyl)tetrahydrofuran-2-carboxamido)-N-(((R)-piperidin-2-yl)methyl)picolinamide], the IC50 lay in the range of 10 to 100 nM.
